Patent publication EP2820422B1, “ABCG2 TRANSPORTER ASSAY” (priority 2012, dated 2013)

Key:
human ABCG2 protein [1] = biological target: T1, human ABCG2 protein (Homo sapiens, UniProt Q9UNQ0); assay: ABCG2-ATPase activity measurement (vanadate sensitive) in cholesterol loaded, isolated Sf9 membrane vesicles; format: biochemical; set-up: removing the full-length human ABCG2 cDNA (G482 variant) from pcDNA3.1/ABCG2 with SacI digestion; made in house; host or cells: Sf9 insect cells (baculovirus)
T1 sequence (Q9UNQ0 1-655): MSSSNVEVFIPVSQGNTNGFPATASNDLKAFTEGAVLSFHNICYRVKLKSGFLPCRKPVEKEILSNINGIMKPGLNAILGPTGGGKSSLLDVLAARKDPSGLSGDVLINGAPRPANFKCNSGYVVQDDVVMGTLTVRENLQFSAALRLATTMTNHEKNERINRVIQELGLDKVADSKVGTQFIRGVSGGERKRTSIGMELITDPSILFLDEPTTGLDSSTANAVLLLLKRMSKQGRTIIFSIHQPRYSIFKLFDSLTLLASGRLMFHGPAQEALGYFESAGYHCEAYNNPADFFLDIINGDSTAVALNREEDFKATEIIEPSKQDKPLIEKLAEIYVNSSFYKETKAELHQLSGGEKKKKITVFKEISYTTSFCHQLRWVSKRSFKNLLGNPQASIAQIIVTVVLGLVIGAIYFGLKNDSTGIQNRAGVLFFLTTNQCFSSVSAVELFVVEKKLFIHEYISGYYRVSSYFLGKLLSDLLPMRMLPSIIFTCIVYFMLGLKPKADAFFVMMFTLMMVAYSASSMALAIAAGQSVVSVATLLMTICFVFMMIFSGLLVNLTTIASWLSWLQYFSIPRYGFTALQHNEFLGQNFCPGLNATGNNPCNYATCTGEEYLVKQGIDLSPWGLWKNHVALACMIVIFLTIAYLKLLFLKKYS
Procedure: Thus, for direct measurements with ABCG2 in Sf9 membrane vesicles the membrane is loaded with cholesterol. After homogenization the sample is incubated with 2.5 mg/ml cholesterol-cyclodextrin complex (Cyclolab, Budapest) for 20 minutes at +4°C then followed by centrifugation steps.
ABCG2-Sf9 membrane vesicles (10 ug total protein) or isolated ABCG2 (0.2 ug) and separately added liposomes or reconstituted ABCG2-proteoliposome (0.2 ug) was added to assay mixture (final volume 150 ul) and preincubated for 5 or 20 minutes at 37°C when isolated ABCG2 and liposomes are used.
Reaction is started by adding Mg-ATP pH 7.0 to the reaction mixture at 3 mM and stopped after 20 or 30 minutes (for purified ABCG2) by 5% SDS.
Self-degradation of ATP is checked in each measurement by ABCG2 free samples.
Assay mixture was adapted for different setup with different type of ABCG2 samples. Assay buffer was 40 mM TRIS-MOPS pH 7.0 with 0.5 mM EGTA, 50 mM […] and 2 mM DTT.
For 'ABCG2 in Sf9 membrane vesicle' setup 5 mM Na-azide, 1 mM ouabain, were given to inhibit Sf9 intrinsic ATPases. ABC specific ATPase was measured as vanadate sensitive ATPase after determining the vanadate (1.3 mM) insensitive background.
A concentration set of K2HPO4 (10-50 ug/sample) is used as standard.

human ABCG2 protein [2] = biological target: T1, human ABCG2 protein; details: cited from earlier work

With `C[C@H](CCC(=O)NCCC[N+](C)(C)CCCS(=O)(=O)[O-])[C@H]1CC[C@H]2[C@@H]3[C@H](O)C[C@@H]4C[C@H](O)CC[C@]4(C)[C@H]3C[C@H](O)[C@]12C` [CHAPS, 3-[(3-Cholamidopropyl)dimethylammonio]-1-propanesulfonate] the “effect of modifier agent on basal ABCG2-ATPase activity” value (human ABCG2 protein [1]; cholesterol loaded Sf9 membrane vesicles, concentrations below the CMC, drug stimulation (5 uM quercetin) not altered, Figures 3 and 4) was “sigificantly decreased”.
With `Cc1cn(-c2cc(NC(=O)c3ccc(C)c(Nc4nccc(-c5cccnc5)n4)c3)cc(C(F)(F)F)c2)cn1` [Nilotinib] the “effect on the ABCG2-ATPase activity” value (human ABCG2 protein [1]; isolated Sf9 cell membrane preparations, first an activation, then an inhibition, Figure 6) was “biphasic effect”.
For `COc1ccc2c3c([nH]c2c1)[C@H](C=C(C)C)N1C(=O)[C@@H]2CCCN2C(=O)[C@@H]1C3` [FTC], the “inhibition of basal vanadate-sensitive ATPase activity of ABCG2” value (human ABCG2 protein [2]) is given as “fully inhibited”, the “Inhibition (+ modifying agent 0.1% CHAPS)” value (human ABCG2 protein [1]) is given as 70% and the “Inhibition (Control)” value (human ABCG2 protein [1]) is given as 70%.
